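Growth conditions: 96-well plates. Treatment: test compound, 48 hours, 5 concentrations. Analysis: linear interpolation between bracketing concentrations; unreached endpoints set to highest concentration. The concentration for 50% growth inhibition is given as GI50.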 Activity calls are given as the source filed them. Cut-off read from the data, not from the text of the source: active = GI50 up to about 1.1 µM and inactive = higher.
Columns and labels:
Assay in all cases: DTP human tumour cell line panel, 48 h
DMS-114 = system: DMS-114
786-0 = system: 786-0
NCI-H226 = system: NCI-H226
RPMI-8226 = system: RPMI-8226
LOX IMVI = system: LOX IMVI
TK-10 = system: TK-10
NCI-H522 = system: NCI-H522
EKVX = system: EKVX
SF-295 = system: SF-295
HCT-15 = system: HCT-15
HCC 2998 = system: HCC 2998
SK-MEL-2 = system: SK-MEL-2
K562 = system: K562
UACC-257 = system: UACC-257
HOP-92 = system: HOP-92
HT-29 = system: HT-29
OVCAR-3 = system: OVCAR-3
Malme-3M = system: Malme-3M
MCF7 = system: MCF7

SMILES | GI50 (DMS-114) | GI50 (786-0) | GI50 (NCI-H226) | GI50 (RPMI-8226) | GI50 (LOX IMVI) | GI50 (TK-10) | GI50 (NCI-H522) | GI50 (EKVX) | GI50 (SF-295) | GI50 (HCT-15) | GI50 (HCC 2998) | GI50 (SK-MEL-2) | GI50 (K562) | GI50 (UACC-257) | GI50 (HOP-92) | GI50 (HT-29) | GI50 (OVCAR-3) | GI50 (Malme-3M) | GI50 (MCF7)
CC1(n2nc(-c3ccccc3)n(-c3ccccc3)c2=O)CSC1 | 69.5 µM (inactive) | > 100 µM (inactive) | > 100 µM (inactive) | > 100 µM (inactive) | > 100 µM (inactive) | > 100 µM (inactive) | > 100 µM (inactive) | > 100 µM (inactive) | > 100 µM (inactive) | > 100 µM | > 100 µM (inactive) | > 100 µM (inactive) | > 100 µM (inactive) | > 100 µM (inactive) | > 100 µM (inactive) | > 100 µM (inactive) |  |  | 
CS/C(=N\c1ccccc1)N(c1ccccc1)c1nc(=[N+](C)C)ss1.[O-][Cl+3]([O-])([O-])[O-] | 0.0486 µM (active) | 5.66 µM (inactive) | 10 µM (inactive) | 0.22 µM (active) | 3.15 µM (inactive) | 14.5 µM (inactive) | 0.353 µM (active) | 15.3 µM (inactive) | 12.5 µM (inactive) | 2.26 µM | 5.35 µM (inactive) | 2.01 µM (inactive) | 0.27 µM (active) | 2.05 µM (inactive) | 2.79 µM (inactive) | 0.034 µM (active) | 1.66 µM (inactive) | 2.79 µM (inactive) | 
O=P(Nc1cccc(Cl)c1)(Oc1ccccc1)N(CCCl)CCCl (stereo unspecified) | 12.7 µM (inactive) |  | 15 µM (inactive) |  |  | 13.7 µM (inactive) | 99.5 µM (inactive) | 17.7 µM (inactive) | 14.5 µM (inactive) | 13.5 µM | 14.8 µM (inactive) | 12.6 µM (inactive) | 99.3 µM (inactive) | 14.1 µM (inactive) | 11.9 µM (inactive) | 14.8 µM (inactive) | 14.2 µM (inactive) | 14.9 µM (inactive) | 
COC(=O)C(Cc1nc2ccccc2nc1O)C(=O)C(=O)Nc1ccc(F)cc1 (stereo unspecified) | 22.9 µM (inactive) | 25.4 µM (inactive) | > 100 µM (inactive) |  | 41.3 µM (inactive) | > 100 µM (inactive) | 10.3 µM (inactive) | > 100 µM (inactive) | > 100 µM (inactive) | > 100 µM | > 100 µM (inactive) | 34.4 µM (inactive) |  | > 100 µM (inactive) | 20.8 µM (inactive) | 42.6 µM (inactive) | 40.6 µM (inactive) | 28.8 µM (inactive) | 
COc1ccc(/C=C/C(=N\NC(=O)c2ccccc2)c2sc(Nc3ccc([N+](=O)[O-])cc3)nc2C)cc1OC | 15.1 µM (inactive) | 10.5 µM (inactive) | 18.2 µM (inactive) |  | 3.75 µM (inactive) | 29.3 µM (inactive) | 4.24 µM (inactive) | 18.6 µM (inactive) | 11.2 µM (inactive) | 7.89 µM | 29.6 µM (inactive) | 15.9 µM (inactive) | 3.18 µM (inactive) | 12.6 µM (inactive) | < 0.01 µM (active) | 17 µM (inactive) | 23.3 µM (inactive) | 19.2 µM (inactive) | 
O=C(Nc1ccccc1)C(=O)C(C(=O)c1ccccc1F)C1OC(=O)c2ccccc21 (stereo unspecified) | 20.9 µM (inactive) |  | 25.1 µM (inactive) | 35.1 µM (inactive) | 27.2 µM (inactive) | 69.2 µM (inactive) | 21.5 µM (inactive) | 35 µM (inactive) | 47.1 µM (inactive) | 22.9 µM | 30.3 µM (inactive) | 23.9 µM (inactive) | 44.7 µM (inactive) | 66.5 µM (inactive) | > 100 µM (inactive) | 37.9 µM (inactive) |  |  | 
CC(C)=CC(=O)OC1C2C(C)C(=O)OC2C(O)C(C)C2C=CC(=O)C21C (stereo unspecified) | 2.58 µM (inactive) |  | 5.22 µM (inactive) | 1.48 µM (inactive) | 0.918 µM (active) |  | 0.569 µM (active) | 2.92 µM (inactive) | 6.14 µM (inactive) | 2 µM | 5.47 µM (inactive) | 4.15 µM (inactive) | 2.14 µM (inactive) | 3.94 µM (inactive) | 4.09 µM (inactive) | 3.21 µM (inactive) | 2.75 µM (inactive) | 3.58 µM (inactive) | 2.43 µM (inactive)
C[P+](C)(C)c1ccccc1 | > 100 µM (inactive) | > 100 µM (inactive) | > 100 µM (inactive) | > 100 µM (inactive) | > 100 µM (inactive) | > 100 µM (inactive) |  | > 100 µM (inactive) | > 100 µM (inactive) | > 100 µM | > 100 µM (inactive) | > 100 µM (inactive) | > 100 µM (inactive) | > 100 µM (inactive) | > 100 µM (inactive) | > 100 µM (inactive) | > 100 µM (inactive) | > 100 µM (inactive) | 

Source: ChEMBL document CHEMBL1201862, “PubChem BioAssay data set” (2004)
